Experimental data reported in patent US7960427B2, “5-hydroxyindole-3-carboxylate derivatives and uses thereof” (priority 2004, dated 2011).
In brackets after ≈: the same amount, converted by molar mass. Structures can show the parent of a compound that is named as a salt.

What was measured:
HBV DNA = test: In vitro anti-HBV activity: replication of HBV DNA in 2.2.15 cells (dot hybridization); type: cell-based, Hepatitis B virus (HBV); conditions: for IC50: Hepatitis B virus, read-out: DNA replication IC50; for DNA replication SI: selectivity index
Method: (§1) All compounds were evaluated for their anti-HBV activities, namely the ability to inhibit the replication of HBV DNA and the production of HBsAg and HBeAg in HBV-infected 2.2.15 cells.
(§2) The samples were dissolved in DMSO for appropriate concentrations, and then each was diluted 3-fold with culture medium. The 2.2.15 cells were planted into 96-well culture plates. […] The culture supernatants and 2.2.15 cells were collected respectively on the 8th plant day. The secretion concentrations of HBsAg and HBeAg in the culture supernatants were measured by RIA on SPRIA Kit for Detection of HBsAg and HBeAg (Beijing North Institute of Biological Technology), and the replication of HBV DNA was measured by dot hybridization with a^32PdCTP (FuRui Biological Technology Ltd., China).

HIV-1 protease = molecular target: T1, HIV-1 protease (Human immunodeficiency virus type 1 group M subtype B, UniProt P04585); test: Anti-HIV-1 protease activity (fluorescence labeled substrate); type: biochemical; conditions: for inhibition ratio at 0.5 ug/ml: sample concentration 0.5 ug/ml; for inhibition ratio at 2.0 ug/ml: sample concentration 2.0 ug/ml; for inhibition ratio at 10 ug/ml: sample concentration 10 ug/ml; for inhibition ratio at 50 ug/ml: sample concentration 50 ug/ml; for inhibition ratio at 250 ug/ml: sample concentration 250 ug/ml
T1 construct: The genetically engineered target enzyme (HIV-1 protease, preserved at −85° C.)
Method: HIV-1 protease can cut the fluorescence labeled substrate under optimal condition and reaction system, so the activity of enzyme is determined by the fluorescence in the product of enzymatic reaction. The samples are added into the reaction system to observe the inhibitive effect on the enzyme.
The samples and the reference drug Indinavir ([…].) were dissolved in DMSO or redistilled water for appropriate concentration. Each was diluted 5-fold and then added into the buffer containing fluorescence labeled substrate (MP Co.). The genetically engineered target enzyme (HIV-1 protease, preserved at −85° C.) was added to the buffer and incubated under the optimal reaction condition. The fluorescence was determined by FLUO star Galaxy fluorometer.

2.2.15 cells = test: Cytotoxicity (TC50) in 2.2.15 cells; type: cell-based
Method: as §1, §2

Compound | IC50 (HBV DNA) | DNA replication SI (HBV DNA) | IC50 (HIV-1 protease) | inhibition ratio at 0.5 ug/ml (HIV-1 protease) | inhibition ratio at 2.0 ug/ml (HIV-1 protease) | inhibition ratio at 10 ug/ml (HIV-1 protease) | inhibition ratio at 50 ug/ml (HIV-1 protease) | inhibition ratio at 250 ug/ml (HIV-1 protease) | TC50 (2.2.15 cells)
CCOC(=O)c1c(CSc2ccc(F)cc2)n(C2CC2)c2cc(Br)c(O)c(CN3CCN(C)CC3)c12 [Example 19, Ethyl 6-bromo-1-cyclopropyl-5-hydroxy-4-[(4-methyl-1-piperazinyl)methyl]-2-[(4-fluorophenyl)thiomethyl]-1H-indole-3-carboxylate dihydrochloride] | 13 µg/mL | 2.85 | 232 µM | −5.6 | −8.9 | −8.9 | 20.7 | 63.9 | 37.04 µg/mL
CCOC(=O)c1c(C[S+]([O-])c2ccc(F)c(F)c2)n(C2CC2)c2cc(Br)c(O)c(CN3CCN(C)CC3)c12 (stereo not shown) [Example 67, Ethyl 6-bromo-1-cyclopropyl-5-hydroxy-4-[(4-methyl-1-piperazinyl)methyl]-2-[(3,4-difluorophenyl)sulfinylmethyl]-1H-indole-3-carboxylate dihydrochloride] | 5.4 µg/mL | 6.35 |  | 3.2 | 10.5 | 9.4 | 0.5 | 19.3 | 34.35 µg/mL
CCOC(=O)c1c(C[S+]([O-])c2ccccc2C)n(C)c2cc(Br)c(O)c(CN3CCOCC3)c12 (stereo not shown) [Example 57, Ethyl 6-bromo-5-hydroxy-1-methyl-4-(morpholinomethyl)-2-[(2-methylphenyl)sulfinylmethyl]-1H-indole-3-carboxylate] | 17 µg/mL (≈ 30.9 µM) | 3.03 |  | 6.4 | 9.2 | 1.9 | 15.5 | 41.0 | 51.53 µg/mL (≈ 93.8 µM)
CCOC(=O)c1c(C[S+]([O-])c2ccc(F)cc2)n(C2CC2)c2cc(Br)c(O)c(Cn3ccnc3C)c12 (stereo not shown) [Example 138, Ethyl 6-bromo-1-cyclopropyl-5-hydroxy-4-[(2-methyl-1-imidazolyl)methyl]-2-[(4-fluorophenyl)sulfinylmethyl]-1H-indole-3-carboxylate] | 5 µg/mL (≈ 8.7 µM) | 3.74 | 111 µM | 6.8 | −2.3 | 6.4 | 12.7 | 75.7 | 18.52 µg/mL (≈ 32.2 µM)
CCOC(=O)c1c(C[S+]([O-])c2ccc(F)cc2)n(C2CC2)c2cc(Br)c(O)c(CNC(=N)N)c12 (stereo not shown) [Example 154, Ethyl 6-bromo-1-cyclopropyl-4-(guanidinylmethyl)-5-hydroxy-2-[(4-fluorophenyl)sulfinylmethyl]-1H-indole-3-carboxylate] | 5.2 µg/mL (≈ 9.43 µM) | 3.63 | 43.5 µM | 3.2 | 13.2 | 4.8 | 19.8 | 109.3 | 18.52 µg/mL (≈ 33.6 µM)
CCOC(=O)c1c(C[S+]([O-])c2ccccc2)n(C)c2cc(Br)c(O)c(Cn3cncn3)c12 (stereo not shown) [Example 146, Ethyl 6-bromo-5-hydroxy-1-methyl-4-[(1H-1,2,4-triazol-1-yl)methyl]-2-(phenylsulfinylmethyl)-1H-indole-3-carboxylate] | 13.1 µg/mL (≈ 25.3 µM) | 3.06 |  |  |  |  |  |  | 40.0 µg/mL (≈ 77.3 µM)
CCOC(=O)c1c(C[S+]([O-])Cc2ccccc2F)n(C2CC2)c2cc(Br)c(O)c(Cn3ccnc3C)c12 (stereo not shown) [Example 183, Ethyl 6-bromo-1-cyclopropyl-5-hydroxy-4-[(2-methyl-1-imidazolyl)methyl]-2-[(2-fluorobenzyl)sulfinylmethyl]-1H-indole-3-carboxylate] | 3.45 µg/mL (≈ 5.86 µM) | 10.74 |  |  |  |  |  |  | 37.04 µg/mL (≈ 62.9 µM)
CCOC(=O)c1c(CS(=O)(=O)Cc2ccc(F)cc2)n(C)c2cc(Br)c(O)c(Cn3ccnc3)c12 [Example 163, Ethyl 6-bromo-5-hydroxy-4-[(1-imidazolyl)methyl]-1-methyl-2-[(4-fluorobenzyl)sulfonylmethyl]-1H-indole-3-carboxylate] | 0.68 µg/mL (≈ 1.2 µM) | 31.45 |  |  |  |  |  |  | 21.39 µg/mL (≈ 37.9 µM)
CCOC(=O)c1c(C[S+]([O-])c2ccc(F)cc2)n(C)c2cc(Br)c(O)c(CN3CCOCC3)c12 (stereo not shown) [Example 58, Ethyl 6-bromo-5-hydroxy-1-methyl-4-(morpholinomethyl)-2-[(4-fluorophenyl)sulfinylmethyl]-1H-indole-3-carboxylate] | 57.6 µg/mL (≈ 104 µM) | >8.7 |  | 11.7 | 11.6 | 15.9 | 22.9 | 37.4 | >500 µg/mL
CCOC(=O)c1c(C[S+]([O-])c2ccccc2)n(C)c2cc(Br)c(O)c(Cn3ccnc3)c12 (stereo not shown) [Example 116, Ethyl 6-bromo-5-hydroxy-4-[(1-imidazolyl)methyl]-1-methyl-2-(phenylsulfinylmethyl)-1H-indole-3-carboxylate] | 2.56 µg/mL (≈ 4.96 µM) | 3.17 |  | 0.4 | −2.4 | −1.5 | 11.1 | 37.5 | 8.12 µg/mL (≈ 15.7 µM)
CCOC(=O)c1c(C[S+]([O-])Cc2ccco2)n(C2CC2)c2cc(Br)c(O)c(Cn3ccnc3)c12 (stereo not shown) [Example 130, Ethyl 6-bromo-1-cyclopropyl-5-hydroxy-4-[(1-imidazolyl)methyl]-2-[(2-furylmethyl)sulfinylmethyl]-1H-indole-3-carboxylate] | 5.94 µg/mL (≈ 10.9 µM) | 4.16 |  |  |  |  |  |  | 24.69 µg/mL (≈ 45.2 µM)
CCOC(=O)c1c(CS(=O)(=O)Cc2ccccc2F)n(C2CC2)c2cc(Br)c(O)c(Cn3ccnc3C)c12 [Example 165, Ethyl 6-bromo-1-cyclopropyl-5-hydroxy-4-[(2-methyl-1-imidazolyl)methyl]-2-[(2-fluorobenzyl)sulfonylmethyl]-1H-indole-3-carboxylate] | 3.14 µg/mL (≈ 5.19 µM) | 2.47 |  |  |  |  |  |  | 7.76 µg/mL (≈ 12.8 µM)
CCOC(=O)c1c(CS(=O)(=O)c2ccc(C(F)(F)F)cc2)n(C)c2cc(Br)c(O)c(Cn3ccnc3C)c12 [Example 180, Ethyl 6-bromo-5-hydroxy-1-methyl-4-[(2-methyl-1-imidazolyl)methyl]-2-[(4-trifluoromethylphenyl)sulfonylmethyl]-1H-indole-3-carboxylate] | 3.56 µg/mL (≈ 5.79 µM) | 14.43 |  |  |  |  |  |  | 51.36 µg/mL (≈ 83.6 µM)
CCOC(=O)c1c(C[S+]([O-])Cc2cccc(F)c2)n(C)c2cc(Br)c(O)c(CN3CCOCC3)c12 (stereo not shown) [Example 87, Ethyl 6-bromo-5-hydroxy-1-methyl-4-(morpholinomethyl)-2-[(3-fluorobenzyl)sulfinylmethyl]-1H-indole-3-carboxylate] | 0.53 µg/mL (≈ 0.934 µM) | 40.35 |  |  |  |  |  |  | 21.39 µg/mL (≈ 37.7 µM)
CCOC(=O)c1c(C[S+]([O-])c2ccc(F)cc2)n(C2CC2)c2cc(Br)c(O)c(Cn3ccnc3)c12 (stereo not shown) [Example 117, Ethyl 6-bromo-1-cyclopropyl-5-hydroxy-4-[(1-imidazoly)methyl]-2-[(4-fluorophenyl)sulfinylmethyl]-1H-indole-3-carboxylate] | 11.4 µg/mL (≈ 20.3 µM) | 4.87 |  |  |  |  |  |  | 55.56 µg/mL (≈ 99.1 µM)
CCOC(=O)c1c(CS(=O)(=O)Cc2ccc(F)cc2)n(C)c2cc(Br)c(O)c(CN3CCCC3)c12 [Example 84, Ethyl 6-bromo-5-hydroxy-1-methyl-4-(1-pyrrolidinylmethyl)-2-[(4-fluorobenzyl)sulfonylmethyl]-1H-indole-3-carboxylate] | 0.58 µg/mL (≈ 1.02 µM) | 42.57 |  |  |  |  |  |  | 24.69 µg/mL (≈ 43.5 µM)
CCOC(=O)c1c(CS(=O)(=O)Cc2ccccc2)n(C)c2cc(Br)c(O)c(CNC(=N)N)c12 [Example 173, Ethyl 6-bromo-4-(guanidinylmethyl)-5-hydroxy-1-methyl-2-(benzylsulfonylmethyl)-1H-indole-3-carboxylate] | 5.04 µg/mL (≈ 9.38 µM) | 4.90 |  |  |  |  |  |  | 24.69 µg/mL (≈ 45.9 µM)
CCOC(=O)c1c(CS(=O)(=O)Cc2ccco2)n(C2CC2)c2ccc(O)c(CN3CCCC3)c12 [Example 85] | 1.52 µg/mL (≈ 3.12 µM) | 9.38 |  |  |  |  |  |  | 14.26 µg/mL (≈ 29.3 µM)
CCOC(=O)c1c(C[S+]([O-])c2c(Cl)cccc2Cl)n(C2CC2)c2cc(Br)c(O)c(Cn3ccnc3C)c12 (stereo not shown) [Example 137, Ethyl 6-bromo-1-cyclopropyl-5-hydroxy-4-[(2-methyl-1-imidazolyl)methyl]-2-[(2,6-dichlorophenyl)sulfinylmethyl]-1H-indole-3-carboxylate] | 35.5 µg/mL (≈ 56.7 µM) | 4.51 |  |  |  |  |  |  | 160.2 µg/mL (≈ 256 µM)
Nc1ccn([C@@H]2CS[C@H](CO)O2)c(=O)n1 [Example 3TC, Lamivudine, reference compound] | 228 µg/mL (≈ 994 µM) |  |  |  |  |  |  |  | 1600 µg/mL (≈ 6980 µM)
